From patent US9980943B2, “Methods of treating muscular dystrophy” (BOARD OF REGENTS OF THE NEVADA SYSTEM OF HIGHER EDUCATION, …, priority 2013, dated 2018)

Key:
Assay type in all cases: cell-based, mouse
[1] = system: β-galactosidase in CMV-LacZ C2C12 myotubes; assay: CMV-LacZ secondary screen in C2C12 myotubes (β-Gal stabilizing assay); conditions: C2C12 CMV-LacZ myotubes, fold relative to DMSO
Procedure, shortened: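 First, C2C12 myoblasts were transfected with a linearized CMV-LACZ vector and clonal lines selected by FDG β-gal assay. Then cells were exposed to compounds at 0.5, 1, 5, 10, 20 and 40 μM in 96-well format, two replicates each, and β-gal measured.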

[2] = system: α7 integrin (LacZ reporter in α7βgal+/− myoblasts); assay: Myoblast α7+/LacZ integrin FDG assay (Burkin assay in myoblasts, 96-well); conditions: α7+/LacZ myoblasts, 96-well
[3] = system: α7 integrin (LacZ reporter in α7+/LacZ myotubes); assay: Myotube α7 integrin FDG assay (Burkin assay in myotubes, 96-well); conditions: myotubes
[4] = system: β-galactosidase in CMV-LacZ C2C12 myoblasts; assay: CMV-LacZ secondary screen in C2C12 myoblasts (β-Gal stabilizing assay); conditions: CMV-LacZ C2C12 myoblasts
Procedure, shortened: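 Dose-response runs at 0.5–40 μM (0.5, 1, 5, 10, 20, 40 μM; N=2 per point) used a clonal C2C12 line carrying CMV-LacZ. Cells were assayed as myoblasts or as differentiated myotubes, and β-galactosidase levels were read with the FDG fluorogenic substrate.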

Row | Structure (SMILES) | CMV-LACZ in Myotubes, signal relative to DMSO ([1]; 0.5 uM) | CMV-LACZ in Myotubes, signal relative to DMSO ([1]; 1 uM) | CMV-LACZ in Myotubes, signal relative to DMSO ([1]; 5 uM) | CMV-LACZ in Myotubes, signal relative to DMSO ([1]; 10 uM) | CMV-LACZ in Myotubes, signal relative to DMSO ([1]; 20 uM) | CMV-LACZ in Myotubes, signal relative to DMSO ([1]; 40 uM) | Burkin Assay in Myoblasts, signal relative to DMSO ([2]; 0.5 uM) | Burkin Assay in Myoblasts, signal relative to DMSO ([2]; 1 uM) | Burkin Assay in Myoblasts, signal relative to DMSO ([2]; 5 uM) | Burkin Assay in Myoblasts, signal relative to DMSO ([2]; 10 uM) | Burkin Assay in Myoblasts, signal relative to DMSO ([2]; 20 uM) | Burkin Assay in Myoblasts, signal relative to DMSO ([2]; 40 uM) | Burkin Assay in Myotubes, α7 integrin LacZ reporter signal relative to DMSO ([3]; 0.5 uM) | Burkin Assay in Myotubes, α7 integrin LacZ reporter signal relative to DMSO ([3]; 1 uM) | Burkin Assay in Myotubes, α7 integrin LacZ reporter signal relative to DMSO ([3]; 5 uM) | Burkin Assay in Myotubes, α7 integrin LacZ reporter signal relative to DMSO ([3]; 10 uM) | Burkin Assay in Myotubes, α7 integrin LacZ reporter signal relative to DMSO ([3]; 20 uM) | Burkin Assay in Myotubes, α7 integrin LacZ reporter signal relative to DMSO ([3]; 40 uM) | CMV-LACZ in Myoblasts (β-galactosidase activity relative to DMSO) ([4]; 0.5 uM) | CMV-LACZ in Myoblasts (β-galactosidase activity relative to DMSO) ([4]; 1 uM) | other results
1 | NS(=O)(=O)c1ccc(NC(=O)CN2CCc3ccccc32)cc1 [MLS000850522-01] | 0.8848 | 0.8933 | 1.1090 | 1.0751 | 1.0580 | 1.0200 | 0.7993 | 0.9332 | 1.307 | 1.003 | 0.8743 | 0.8805 | 0.9439 | 0.9058 | 1.11 | 0.9263 | 0.9416 | 0.9324 | 0.8880 | 1.3763 | CMV-LACZ in Myoblasts (β-galactosidase activity relative to DMSO) ([4]; 5 uM): 0.8809; CMV-LACZ in Myoblasts (β-galactosidase activity relative to DMSO) ([4]; 10 uM): 0.8671; CMV-LACZ in Myoblasts (β-galactosidase activity relative to DMSO) ([4]; 20 uM): 0.8358; CMV-LACZ in Myoblasts (β-galactosidase activity relative to DMSO) ([4]; 40 uM): 1.0091
2 | O=c1c2cc(-c3ccccc3)sc2nc2n1N=C(c1ccccc1)CS2 [MLS000858981-01] | 1.0257 | 0.8419 | 1.0786 | 0.9781 | 1.0421 | 1.0000 | 0.953 | 0.999 | 1.186 | 1.01 | 1.0113 | 1.005 | 1.027 | 0.8837 | 1.055 | 0.8922 | 0.8526 | 0.8173 | 0.9229 | 0.9696 | CMV-LACZ in Myoblasts (β-galactosidase activity relative to DMSO) ([4]; 5 uM): 1.1687; CMV-LACZ in Myoblasts (β-galactosidase activity relative to DMSO) ([4]; 10 uM): 0.9009; CMV-LACZ in Myoblasts (β-galactosidase activity relative to DMSO) ([4]; 20 uM): 0.9985; CMV-LACZ in Myoblasts (β-galactosidase activity relative to DMSO) ([4]; 40 uM): 0.9696
3 | O=C(NCc1ccccc1)c1csc(-c2cccnc2)n1 [MLS000860966-01] | 0.8229 | 1.0743 | 0.9632 | 0.8601 | 0.9190 | 0.7920 | 0.8092 | 0.9506 | 1.225 | 1.126 | 1.242 | 1.117 | 0.9275 | 0.8211 | 1.1137 | 1.107 | 1.06 | 0.8927 | 0.9370 | 1.0900 | CMV-LACZ in Myoblasts (β-galactosidase activity relative to DMSO) ([4]; 5 uM): 0.7918; CMV-LACZ in Myoblasts (β-galactosidase activity relative to DMSO) ([4]; 10 uM): 0.8424; CMV-LACZ in Myoblasts (β-galactosidase activity relative to DMSO) ([4]; 20 uM): 0.6232; CMV-LACZ in Myoblasts (β-galactosidase activity relative to DMSO) ([4]; 40 uM): 0.7600
4 | C/C(=N\NC(=O)c1cc(C)oc1C)c1ccc2ccccc2c1 [MLS000912258-01] | 0.9743 | 0.9162 | 1.1251 | 1.2253 | 1.0760 | 1.0350 | 0.8436 | 0.9089 | 1.2722 | 0.8425 | 0.6351 | 0.3725 | 0.9264 | 0.8571 | 1.144 | 0.9631 | 0.877 | 0.7193 | 1.1073 | 1.1693 | CMV-LACZ in Myoblasts (β-galactosidase activity relative to DMSO) ([4]; 5 uM): 0.9071; CMV-LACZ in Myoblasts (β-galactosidase activity relative to DMSO) ([4]; 10 uM): 1.0171; CMV-LACZ in Myoblasts (β-galactosidase activity relative to DMSO) ([4]; 20 uM): 1.1074; CMV-LACZ in Myoblasts (β-galactosidase activity relative to DMSO) ([4]; 40 uM): 0.8621
5 | CC(=O)Nc1ccc(NC(=O)C/C(C)=N/NC(=O)COc2cc(C)c(Br)cc2Br)cc1 [MLS000912562-01] | 1.0905 | 0.8924 | 0.9602 | 1.1674 | 1.2090 | 1.2780 | 0.7697 | 0.929 | 1.039 | 0.9253 | 0.6911 | 0.5552 | 0.898 | 0.8582 | 0.929 | 0.8748 | 0.8872 | 0.7024 | 0.8680 | 0.9150 | CMV-LACZ in Myoblasts (β-galactosidase activity relative to DMSO) ([4]; 5 uM): 0.7103; CMV-LACZ in Myoblasts (β-galactosidase activity relative to DMSO) ([4]; 10 uM): 0.6246; CMV-LACZ in Myoblasts (β-galactosidase activity relative to DMSO) ([4]; 20 uM): 1.0302; CMV-LACZ in Myoblasts (β-galactosidase activity relative to DMSO) ([4]; 40 uM): 0.8747
6 | COc1ccc(CCNC(=O)Cn2nnc(C(=O)Nc3ccc(Br)cc3)c2N)cc1OC [MLS000912699-01] | 0.8089 | 0.9859 | 0.9419 | 1.1310 | 0.9235 | 0.5365 | 1.115 | 1.038 | 0.9322 | 0.9298 | 0.6724 | 0.4392 | 1.175 | 0.9376 | 0.9252 | 0.939 | 0.5217 | 0.6518 | 0.7147 | 0.8744 | CMV-LACZ in Myoblasts (β-galactosidase activity relative to DMSO) ([4]; 5 uM): 0.9111; CMV-LACZ in Myoblasts (β-galactosidase activity relative to DMSO) ([4]; 10 uM): 1.0462; CMV-LACZ in Myoblasts (β-galactosidase activity relative to DMSO) ([4]; 20 uM): 0.8826; CMV-LACZ in Myoblasts (β-galactosidase activity relative to DMSO) ([4]; 40 uM): 0.5204
